What was measured:
human prolactinoma cells = assay: Realtime PCR of PRL in primary human prolactinoma cell cultures; type: cell-based; settings: Tumor B; 0.1-5 μM, 24 hr, in the absence of added EGF
Protocol: A, B, D, and E. After trans-sphenoidal surgery of human prolactinomas, tumor cells were cultured. […] PRL levels in culture media were measured using RIA (B). H&E and PRL staining of tumor and confocal immunocytochemistry of EGFR and HER2 (Tumor A) (C), or for Tumor B (F). Magnification of these figures was 100×. […] PRL levels in culture media were measured using RIA (E). Prolactinoma cells (Tumor B) were treated with U0126 (0.1-5 μM) for 24 hr, and Realtime PCR of PRL performed (G).
Total RNA was extracted with Trizol reagent (Invitrogen) according to instructions of the manufacturer. The amount and the integrity of RNA were assessed by measurement of absorbance at 260 and 280 nm. Total RNA was reverse-transcribed into first-strand cDNA using iScript cDNA synthesis kit (Bio-Rad Laboratories, Inc.) according to the manufacturer. Quantitative PCR reactions were carried out in the iQ5 Multicolor Real-time PCR Detection System (Bio-Rad Laboratories, Inc.) as described (8). Certified RT^2 primer assays for rat GH, PRL and human PRL were purchased from SuperArray. Primer sequences (Invitrogen) were 5′-[…]-3′ (18S rRNA forward (F)), 5′-[…]-3′ (18S rRNA reverse (R)), 5′-[…]-3′ (human (3-actin F), 5′-[…]-3′ (human (3-actin R), 5′-[…]-3′ (human GAPDH F), 5′-[…]-3′ (human GAPDH R).
Human prolactinoma tissues were obtained at the time of surgery (Pituitary Center, Cedars-Sinai Medical Center) and transferred in 0.3% BSA containing DMEM according to an IRB-approved protocol. After washing with medium, tumor tissues were chopped with a sterile scalpel into approximately 1-2 mm pieces. Tissues were rinsed and digested with DMEM containing 0.3% BSA, 0.35% collagenase, and 0.15% hyaluronidase at 37° C. for 30 min The mixture was centrifuged at 1,500 rpm for 5 min at 4° C., and the cell pellet resuspended in an appropriate volume of culture medium containing 10% FBS and antibiotics in 48 well plates. After 24 hr incubation with serum depleted starvation medium (DMEM with 0.3% BSA), treatment agents were added with fresh serum-depleted medium (0.3% BSA), and medium collected for RIA. RNA was extracted after 24 hr treatment. Medium was also collected at baseline. To normalize for cell number effect, the PRL value of treated medium was divided by that of pre-treatment starvation medium to obtain a treated value for each well (n=4).

[1] = system: GH3 cells stably expressing HER2CA; assay: RIA of PRL and GH secretion in culture medium of GH3 stable transfectants; type: cell-based, rat; settings: each respective transfectant (pcDNA3, HER2CA); 5 nM EGF or 6 nM HRG
Protocol: μM) for the indicated times, and Realtime PCR analysis performed. C. GH and PRL secretion in the culture medium determined by RIA. Hormone secretion levels were normalized for cell numbers, Values are mean±SEM. *p<0.05, **p<0.01.
GH3 rat lacto-somatotroph tumor cells secreting PRL and GH were purchased from the American Type Culture Collection. HER2CA cells were generated by transfection with pcDNA3-HER2CA (V654E) purchased from Addgene (Addgene plasmid 16259). Stable colonies were selected in the presence of 500 μg/ml G418 (Invitrogen). A vector control cell line pcDNA3 was simultaneously established by transfecting pcDNA3 that lacked inserted cDNA. After selection and propagation of stable transfectants, cells were cultured in DMEM/F12 medium containing 15% horse serum, 2.5% FBS, penicillin/streptomycin, and 500 μg/m G418. After synchronization by serum starvation (medium containing 0.2% bovine serum albumin for ˜24 h), cells with treatment agents was grown in fresh serum-depleted medium (0.2% bovine serum albumin), and samples collected at the indicated times.
RIAs for rat GH and PRL were performed in duplicate, using reagents provided by the National Hormone and Pituitary Program, National Institute of Diabetes and Digestive and Kidney Diseases (Harbor-UCLA Medical Center, Torrance, Calif., USA). Iodination of GH and PRL (5 μg) with iodine-125 (500 μCi) (PerkinElmer life & Analytical Sciences, Boston, Mass., USA) mixed with 0.1 mg Iodo-Gen (Pierce, Rockford, Ill.) was performed using 10-ml columns prepared by G-75 Sephadex (Sigma Chemical Co.). Low interspecies cross-reactivity of the GH and PRL assays were previously shown (8).

[2] = system: GH3 cells stably expressing HER2CA; assay: Realtime PCR of PRL and GH mRNA in GH3 stable transfectants; type: cell-based, rat; settings: each respective transfectant (pcDNA3, HER2CA); 5 nM EGF or 6 nM HRG
Protocol: A. […] C. GH and PRL secretion in the culture medium determined by RIA. Hormone secretion levels were normalized for cell numbers, Values are mean±SEM. *p<0.05, **p<0.01. […] GH3 rat lacto-somatotroph tumor cells secreting PRL and GH were purchased from the American Type Culture Collection. HER2CA cells were generated by transfection with […]) purchased from Addgene (Addgene plasmid 16259). Stable colonies were selected in the presence of 500 μg/ml G418 (Invitrogen). A vector control cell line pcDNA3 was simultaneously established by transfecting pcDNA3 that lacked inserted cDNA. […] After synchronization by serum starvation (medium containing 0.2% bovine serum albumin for 24 h), cells with treatment agents was grown in fresh serum-depleted medium (0.2% bovine serum albumin), and samples collected at the indicated times. Total RNA was extracted with Trizol reagent (Invitrogen) according to instructions of the manufacturer. The amount and the integrity of RNA were assessed by measurement of absorbance at 260 and 280 nm. Total RNA was reverse-transcribed into first-strand cDNA using iScript cDNA synthesis kit (Bio-Rad Laboratories, Inc.) according to the manufacturer. Quantitative PCR reactions were carried out in the iQ5 Multicolor Real-time PCR Detection System (Bio-Rad Laboratories, Inc.) as described (8). […] Primer sequences (Invitrogen) were [NT] rRNA forward ([…] rRNA reverse ([NT] (human (3-actin [NT] (human (3-actin […]).

[3] = system: GH3 cells stably expressing HER2CA; assay: Soft agarose colony-forming assay, HER2CA transfectants; type: cell-based, rat; settings: HER2CA transfectants, 10 d after seeding
Protocol: B. GH3 cells stably expressing HER2CA or pcDNA3 were plated (4,000 per well) in 96 well plates for the indicated times, and WST assay performed. C. […] Values are mean±SEM. *p<0.05, ** p<0.01, ^‡p<0.05 vs pcDNA3 control, ^†p<0.05 vs HER2CA control, ^‡‡p<0.05 vs pcDNA3 control, ^††p<0.05 vs HER2CA control.
Base layers consisting of growth medium containing 0.6% low-melting point agarose (Invitrogen) were poured onto 6-well plates and allowed to solidify. Cells (8×10^3 per well) were plated in triplicate in top layers consisting of growth medium containing 0.3% agarose. Seven to ten days later, cells were stained with 0.2% iodonitrotetrazolium chloride (Invitrogen), and colonies composed of 50 cells were counted manually in 5 randomly selected fields.

| Molecule | suppression of human PRL expression (human prolactinoma cells) | induction of PRL secretion [1] | induction of PRL expression [2] | enhancement of colony formation in soft agar [3] |
| --- | --- | --- | --- | --- |
| N#CC(=C(/N)Sc1ccccc1N)/C(C#N)=C(\N)Sc1ccccc1N [U0126] | ~55% |  |  |  |
| EGF: epidermal growth factor, ErbB family receptor ligand, from Sigma (NSDSECPLSHDGYCLHDGVCMYIEALDKYACNCVVGYIGERCQYRDLKWWELR; Epidermal growth factor; UniProt P01133 971-1023, looked up) |  | approximately 2 fold | approximately 2 fold | ~8 fold |
